Experimental data published in patent US20230219965A1 (KSQ Therapeutics, Inc., priority 2020, published 2023).

Target: USP1/UAF1 enzyme (Homo sapiens, UniProt O94782)
Experiment: USP1/UAF1 deubiquitination assay (ubiquitin-rhodamine 110 substrate)
Type: biochemical
Settings: read-out: USP1 IC50 (Ub-Rho)
Protocol: Certain Compounds of the Disclosure were assessed for USP1/UAF1 activity in a Ubiquitin Rhodamine assay modified from those described previously.
Deubiquitinase activity was measured using ubiquitin-rhodamine 110 as a substrate. Cleavage of the amide bond between rhodamine and the c-terminal glycine of ubiquitin yields an increase in fluorescence signal. The assay was conducted in 20 μl total volume of assay buffer (50 mM Tris-HCl, pH 7.8, 0.5 mM EDTA, 0.01% Bovine Serum Albumin, 1 mM DTT, 0.01% Tween-20), and 0.05 nM USP1/UAF1 enzyme. Reaction was initiated by addition of 150 nM Ubiquitin-rhodamine (Boston Biochem) substrate.
Compounds of the Disclosure, dissolved in DMSO were tested in dose response format, beginning at […].
The example compounds listed below were added to enzyme/assay buffer mix and incubated 10 min. Substrate mix was added, and reaction mix was read in kinetic mode for 30 min at Ex480/Em540 and IC50 response curves were plotted.
Data for all assay formats was calculated as percent inhibition compared with control wells. Percent inhibition was calculated using the following equation: % inhibition=100×[1−(X−min)/(max−min)], where X is the raw data readout, min is the average of the no enzyme control wells (n=32), max is the average of the DMSO control well (n=32). IC50 values were calculated using the standard four parameter curve fitting algorithm in either Prism GraphPad (La Jolla, Calif.) software, or Collaborative Drug Discovery (Burlingame, Calif.) CDD Vault. See Chem. Biol. 20(1): 55-62 (Jan. 24, 2013); Bioorg. Med. Chem. Lett. 23(20): 5660-5666 (Oct. 15, 2013).

Sequence of USP1/UAF1 enzyme (O94782 whole entry): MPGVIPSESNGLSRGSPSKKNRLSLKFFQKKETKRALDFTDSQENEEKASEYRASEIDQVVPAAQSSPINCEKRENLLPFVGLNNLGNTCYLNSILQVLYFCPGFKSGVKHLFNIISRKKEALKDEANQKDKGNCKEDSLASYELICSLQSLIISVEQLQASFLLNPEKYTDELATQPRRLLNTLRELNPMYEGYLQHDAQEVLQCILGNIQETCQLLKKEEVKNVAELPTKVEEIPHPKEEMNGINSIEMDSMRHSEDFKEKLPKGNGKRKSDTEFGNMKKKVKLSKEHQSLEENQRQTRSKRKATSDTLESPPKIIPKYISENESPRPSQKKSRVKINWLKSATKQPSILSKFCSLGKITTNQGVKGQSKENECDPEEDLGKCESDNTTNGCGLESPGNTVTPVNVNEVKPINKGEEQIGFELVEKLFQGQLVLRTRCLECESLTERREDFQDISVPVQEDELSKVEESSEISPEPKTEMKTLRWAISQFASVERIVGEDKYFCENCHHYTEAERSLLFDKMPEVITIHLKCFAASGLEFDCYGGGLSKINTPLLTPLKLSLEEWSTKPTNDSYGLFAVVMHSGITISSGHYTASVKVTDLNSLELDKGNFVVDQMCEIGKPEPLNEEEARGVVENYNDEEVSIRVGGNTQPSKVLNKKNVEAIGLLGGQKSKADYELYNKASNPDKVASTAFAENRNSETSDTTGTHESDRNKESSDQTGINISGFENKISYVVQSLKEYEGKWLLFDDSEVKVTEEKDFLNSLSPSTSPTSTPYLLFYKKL
Sequence of USP1/UAF1 enzyme (Q8TAF3 whole entry partner): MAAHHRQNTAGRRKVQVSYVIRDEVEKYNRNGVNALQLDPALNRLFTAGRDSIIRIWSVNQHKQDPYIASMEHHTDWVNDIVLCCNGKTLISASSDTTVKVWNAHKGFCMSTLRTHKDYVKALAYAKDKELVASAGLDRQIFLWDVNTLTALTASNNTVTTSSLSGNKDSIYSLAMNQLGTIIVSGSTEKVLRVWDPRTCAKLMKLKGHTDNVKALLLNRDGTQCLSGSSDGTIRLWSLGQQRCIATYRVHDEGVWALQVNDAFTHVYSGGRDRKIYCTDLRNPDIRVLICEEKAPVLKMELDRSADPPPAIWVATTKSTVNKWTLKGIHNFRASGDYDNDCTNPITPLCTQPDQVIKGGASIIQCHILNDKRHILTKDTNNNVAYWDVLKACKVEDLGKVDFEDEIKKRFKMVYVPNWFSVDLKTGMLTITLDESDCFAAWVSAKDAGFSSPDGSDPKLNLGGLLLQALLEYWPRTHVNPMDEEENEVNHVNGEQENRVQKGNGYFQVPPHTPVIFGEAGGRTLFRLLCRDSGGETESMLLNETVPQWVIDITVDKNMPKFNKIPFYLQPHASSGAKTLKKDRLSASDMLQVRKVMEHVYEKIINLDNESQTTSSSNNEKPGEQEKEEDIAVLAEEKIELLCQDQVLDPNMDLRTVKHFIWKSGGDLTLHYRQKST

In the case of `CCn1cc(C#N)nc1-c1ccc([C@@H](C)N2C(=O)CCn3nc(-c4c(OC)ncnc4C4CC4)nc32)cc1` [Example 199], the IC50 is reported as 100 to 500 nM.

In the case of `COc1ncnc(C2CC2)c1-c1nc2n(n1)CCC(=O)N2C(C)c1ccc(-n2nc(C(F)(F)F)cc2OCC(F)F)cc1` (stereo not shown) [Example 214], the IC50 is reported as < 100 nM.

For `CC(c1ccc(-n2nc(C(F)(F)F)cc2OCC(F)F)cc1)N1C(=O)CCn2nc(-c3c(Cl)cnn3C(C)C)nc21` (stereo not shown) [Example 215], the IC50 was 100 to 500 nM.

`COc1ncnc(C2CC2)c1-c1nc2n(n1)CCC(=O)N2C(C)c1ccc(-c2nc(C(F)(F)F)cn2C(C)C)c(F)c1OC` (stereo not shown) [Example 218] showed an IC50 of 100 to 500 nM.

For `COc1ncnc(C2CC2)c1-c1nc2n(n1)CCC(=O)N2C(C)c1ccc(-c2ncccc2N(C)C)cc1` (stereo not shown) [Example 219], the IC50 was < 100 nM.

`COc1ncnc(C2CC2)c1-c1nc2n(n1)CCC(=O)N2C(C)c1ccc(-c2ncccc2OC(C)C)cc1` (stereo not shown) [Example 220] was tested, and the IC50 was < 100 nM.

With `CNCc1cc(C(F)(F)F)nn1-c1ccc(CN2C(=O)CCn3nc(-c4c(Cl)cnn4C(C)C)cc32)cc1` [Example 224, 2-(4-chloro-1-isopropyl-1H-pyrazol-5-yl)-4-(4-(5-((methylamino)methyl)-3-(trifluoromethyl)-1H-pyrazol-1-yl)benzyl)-6,7-dihydropyrazolo[1,5-α]pyrimidin-5(4H)-one] the IC50 was 100 to 500 nM.

Molecule `CNCc1cc(C(F)(F)F)nn1-c1ccc(CN2C(=O)CCn3nc(-c4c(OC)ncnc4C4CC4)cc32)cc1` [Example 225, 2-(4-cyclopropyl-6-methoxypyrimidin-5-yl)-4-(4-(5-((methylamino)methyl)-3-(trifluoromethyl)-1H-pyrazol-1-yl)benzyl)-6,7-dihydropyrazolo[1,5-a]pyrimidin-5(4H)-one] has an IC50 of 100 to 500 nM.

With `CC(C)n1ncc(Cl)c1-c1cc2n(n1)CCC(=O)N2Cc1ccc(OCc2ccccn2)cc1` [Example 226, 2-(4-chloro-1-isopropyl-1H-pyrazol-5-yl)-4-(4-(pyridin-2-ylmethoxy)benzyl)-6,7-dihydropyrazolo[1,5-α]pyrimidin-5(4H)-one] the IC50 was 100 to 500 nM.

`CCn1cc(C(F)(F)F)nc1-c1ccc(CN2C(=O)CCn3nc(-c4c(Cl)cnn4C(C)CO)cc32)cc1` (stereo not drawn) [Example 227, 2-(4-chloro-1-(1-hydroxypropan-2-yl)-1H-pyrazol-5-yl)-4-(4-(1-ethyl-4-(trifluoromethyl)-1H-imidazol-2-yl)benzyl)-6,7-dihydropyrazolo[1,5-α]pyrimidin-5(4H)-one] showed an IC50 of 100 to 500 nM.

Molecule `CC(C)n1cc(C(F)(F)F)nc1-c1ccc(CN2C(=O)CCn3nc(-c4c(Cl)cnn4C(C)C)nc32)cc1OCCO` [Example 228, 2-(4-chloro-1-isopropyl-1H-pyrazol-5-yl)-4-(3-(2-hydroxyethoxy)-4-(1-isopropyl-4-(trifluoromethyl)-1H-imidazol-2-yl)benzyl)-6,7-dihydro-[1,2,4]triazolo[1,5-α]pyrimidin-5(4H)-one] has an IC50 of 100 to 500 nM.

`CCn1cc(C(F)(F)F)nc1-c1ccc(CN2C(=O)CCn3nc(-c4c(Cl)cnn4C(C)C)c(N)c32)cc1` [Example 229, 3-amino-2-(4-chloro-1-isopropyl-1H-pyrazol-5-yl)-4-(4-(1-ethyl-4-(trifluoromethyl)-1H-imidazol-2-yl)benzyl)-6,7-dihydropyrazolo[1,5-α]pyrimidin-5(4H)-one] showed an IC50 of 100 to 500 nM.

With `CC(C)n1ncc(Cl)c1-c1cc2n(n1)CCC(=O)N2Cc1ccc(-n2ccc(N3CCOCC3)n2)cc1` [Example 230, 2-(4-chloro-1-isopropyl-1H-pyrazol-5-yl)-4-(4-(3-morpholino-1H-pyrazol-1-yl)benzyl)-6,7-dihydropyrazolo[1,5-α]pyrimidin-5(4H)-one] the IC50 was > 500 nM.

In the case of `CCn1cc(C(F)(F)F)nc1-c1ccc(CN2C(=O)C(NC(C)=O)Cn3nc(-c4c(Cl)cnn4C(C)C)cc32)cc1` (stereo not drawn) [Example 234, N-(2-(4-chloro-1-isopropyl-1H-pyrazol-5-yl)-4-(4-(1-ethyl-4-(trifluoromethyl)-1H-imidazol-2-yl)benzyl)-5-oxo-4,5,6,7-tetrahydropyrazolo[1,5-α]pyrimidin-6-yl)acetamide], the IC50 is reported as 100 to 500 nM.

Work on `CCn1cc(C(F)(F)F)nc1-c1ccc(NC2CCCn3nc(-c4c(Cl)cnn4C(C)C)nc32)cc1` (stereo not drawn) [Example 256, 2-(4-chloro-1-isopropyl-1H-pyrazol-5-yl)-N-(4-(1-ethyl-4-(trifluoromethyl)-1H-imidazol-2-yl)phenyl)-5,6,7,8-tetrahydro-[1,2,4]triazolo[1,5-α]pyridin-8-amine] yielded an IC50 of 100 to 500 nM.

`CCn1cc(C(F)(F)F)nc1-c1ccc(N(C)C2CCCn3nc(-c4c(Cl)cnn4C(C)C)nc32)cc1F` (stereo not shown) [Example 259] was tested, and the IC50 was 100 to 500 nM.

In the case of `CCn1cc(C(F)(F)F)nc1-c1ccc(N(C)C2CCCn3nc(-c4c(Cl)cnn4C(C)C)nc32)cc1` (stereo not shown) [Example 260], the IC50 is reported as 100 to 500 nM.

`CCn1cc(C(F)(F)F)nc1-c1ccc(CN2C(=O)CCn3nc(-c4ccnn4C(C)C)c(Cl)c32)cc1` [Example 268, 3-chloro-4-(4-(1-ethyl-4-(trifluoromethyl)-1H-imidazol-2-yl)benzyl)-2-(1-isopropyl-1H-pyrazol-5-yl)-6,7-dihydropyrazolo[1,5-α]pyrimidin-5(4H)-one] was tested, and the IC50 was > 500 nM.

`CCn1cc(C(F)(F)F)nc1-c1ccc(NC2CCCn3nc(-c4ccnn4C(C)C)c(Cl)c32)cc1F` (stereo not drawn) [Example 269, 3-chloro-N-(4-(1-ethyl-4-(trifluoromethyl)-1H-imidazol-2-yl)-3-fluorophenyl)-2-(1-isopropyl-1H-pyrazol-5-yl)-4,5,6,7-tetrahydropyrazolo[1,5-α]pyridin-4-amine] was tested, and the IC50 was > 500 nM.

`CC(C)n1ncc(Cl)c1-c1cc2n(n1)CCC(=O)N2Cc1ccc(-c2ncccc2OC(F)F)c(Cl)c1` [Example 271, 2-(4-chloro-1-isopropyl-1H-pyrazol-5-yl)-4-(3-chloro-4-(3-(difluoromethoxy)pyridin-2-yl)benzyl)-6,7-dihydropyrazolo[1,5-α]pyrimidin-5(4H)-one] gave an IC50 of 100 to 500 nM.

`CC(C)n1ncc(Cl)c1-c1cc2n(n1)CCC(=O)N2Cc1ccc(-c2cncc(C(F)(F)F)n2)c(Cl)c1` [Example 272] was tested, and the IC50 was > 500 nM.

`CC(C)n1ncc(Cl)c1-c1cc2n(n1)CCC(=O)N2Cc1ccc(-c2nccc(C(F)(F)F)n2)c(Cl)c1` [Example 273] was tested, and the IC50 was > 500 nM.

`COc1nccnc1-c1ccc(CN2C(=O)CCn3nc(-c4c(Cl)cnn4C(C)C)cc32)cc1Cl` [Example 274] gave an IC50 of 100 to 500 nM.

Molecule `Cc1cn2ccnc(-c3ccc(CN4C(=O)CCn5nc(-c6c(Cl)cnn6C(C)C)cc54)cc3Cl)c2n1` [Example 275] has an IC50 of 100 to 500 nM.

`CC(C)n1ncc(Cl)c1-c1cc2n(n1)CCC(=O)N2Cc1ccc(-c2ncnn3cccc23)c(Cl)c1` [Example 276] showed an IC50 of 100 to 500 nM.

`Cc1nc(-c2ccc(CN3C(=O)CCn4nc(-c5c(Cl)cnn5C(C)C)cc43)cc2Cl)cn1C` [Example 277] was tested, and the IC50 was > 500 nM.

In the case of `Cc1ccnnc1-c1ccc(CN2C(=O)CCn3nc(-c4c(Cl)cnn4C(C)C)cc32)cc1Cl` [Example 278], the IC50 is reported as > 500 nM.

With `CC(C)n1ncc(Cl)c1-c1cc2n(n1)CCC(=O)N2Cc1ccc(-c2ncccc2OC(F)(F)F)c(Cl)c1` [Example 279] the IC50 was > 500 nM.

In the case of `Cc1ccn2ncnc(-c3ccc(CN4C(=O)CCn5nc(-c6c(Cl)cnn6C(C)C)cc54)cc3Cl)c12` [Example 280], the IC50 is reported as > 500 nM.

For `Cc1cc(-c2ccc(CN3C(=O)CCn4nc(-c5c(Cl)cnn5C(C)C)cc43)cc2Cl)n(C)n1` [Example 281], the IC50 was > 500 nM.

`Cc1ccc(F)c(-c2ccc(CN3C(=O)CCn4nc(-c5c(Cl)cnn5C(C)C)cc43)cc2Cl)n1` [Example 282] was tested, and the IC50 was > 500 nM.

`CC(C)n1ncc(Cl)c1-c1cc2n(n1)CCC(=O)N2Cc1ccc(-c2ncccc2C(F)(F)F)c(Cl)c1` [Example 283] was tested, and the IC50 was > 500 nM.

For `Cc1ncc(-c2ccc(CN3C(=O)CCn4nc(-c5c(Cl)cnn5C(C)C)cc43)cc2Cl)n1C` [Example 284], the IC50 was > 500 nM.

For `COc1ccc(-c2ccc(CN3C(=O)CCn4nc(-c5c(Cl)cnn5C(C)C)cc43)cc2Cl)nc1` [Example 285], the IC50 was > 500 nM.

In the case of `COc1ccnc(-c2ccc(CN3C(=O)CCn4nc(-c5c(Cl)cnn5C(C)C)cc43)cc2Cl)n1` [Example 286], the IC50 is reported as > 500 nM.

In the case of `CC(C)n1ncc(Cl)c1-c1cc2n(n1)CCC(=O)N2Cc1ccc(-c2nn(C)cc2C#N)c(Cl)c1` [Example 287], the IC50 is reported as > 500 nM.

In the case of `Cc1nn(C)c(C)c1-c1ccc(CN2C(=O)CCn3nc(-c4c(Cl)cnn4C(C)C)cc32)cc1Cl` [Example 289], the IC50 is reported as > 500 nM.

For `COc1cn(C)nc1-c1ccc(CN2C(=O)CCn3nc(-c4c(Cl)cnn4C(C)C)cc32)cc1Cl` [Example 292], the IC50 was 100 to 500 nM.

`COc1ccnnc1-c1ccc(CN2C(=O)CCn3nc(-c4c(Cl)cnn4C(C)C)cc32)cc1Cl` [Example 293] was tested, and the IC50 was > 500 nM.

`COc1ncnc(C2CC2)c1-c1nc2n(n1)CCC(=O)N2Cc1ccc(-c2ncccc2OC(C)C)c(Cl)c1` [Example 295] gave an IC50 of 100 to 500 nM.

Molecule `CC(C)n1cc(F)nc1-c1ccc(CN2C(=O)CCn3nc(-c4c(Cl)cnn4C(C)C)cc32)cc1Cl` [Example 297] has an IC50 of 100 to 500 nM.

`COc1c(C)ccnc1-c1ccc(CN2C(=O)CCn3nc(-c4c(Cl)cnn4C(C)C)cc32)cc1Cl` [Example 298] gave an IC50 of 100 to 500 nM.

For `CC(C)n1ncc(Cl)c1-c1cc2n(n1)CCC(=O)N2Cc1ccc(-c2nccc3c2N(C)CCO3)c(Cl)c1` [Example 299], the IC50 was > 500 nM.
